Source: patent publication US20250011445A1 (priority 2020, published 2025)
Read-outs that look alike come from different tables or passages of the source. *1 amine or outer side, *2 acyl side, *3 side chain or, on linkers, in order; H or OH if unused. Where a SMILES comes first, the peptide text is derived from it. Bridges are numbered along the chain shown (N, C = ends). Roman numbers before positions name the chains, in order. [ ]: non-standard residue; d: D form. The star is where a group is joined. Hexamethylenediamine = C(CCCN[*:2])CCN[*:1]; Dip = N[C@H](C(=O)O)C(c1ccccc1)c1ccccc1; Chg = N[C@H](C(=O)O)C1CCCCC1; NMeA = CN[C@@H](C)C(=O)O; Cbz = O=C(OCc1ccccc1)*; CH2F = FC*

Tests used:
[1] = system: Primary human lung fibroblasts (MRC5 cells); assay: Death ligand-induced cell death in MRC5 cells, Sytox green, Incucyte; assay type: cell-based; settings: for inhibition of TRAIL-induced cell death: MRC5 cells, FIG. 5
Tnfr1KOHoil-1E-KO mice = assay: Cell death-driven lethal skin inflammation (dermatitis) model, Tnfr1KO Hoil-1E-KO mice; assay type: in vivo; settings: treated once inflammation has been initiated (from 30 days onwards)
MRC5 cells = assay: Western blot of cell lysates of IFN-treated MRC5 cells; assay type: cell-based, human; settings: IFNs for 24 h
Description: FIG. 6: MRC5 cells were treated with the indicated IFNs for 24 h before cells were lysed and cell lysates were analysed for presence of the indicated proteins by western blotting.

NIH3T3 cells = assay: Death ligand-induced cell death in NIH3T3 cells, Sytox green, Incucyte; assay type: cell-based, mouse; settings: in presence of zVAD-fmk
[2] = system: Human pancreatic ductal epithelial cells (HPDECs); assay: Death ligand-induced cell death in HPDECs, Sytox green, Incucyte; assay type: cell-based
[3] = system: Lung endothelial cells (LECs); assay type: cell-based, mouse; settings: for sensitivity of cells to death ligand-induced cell death: 1 μg/ml Death Ligand, with zVAD
reovirus 1/L (R1/L) = settings: non-therapeutic inhibition; BOOP model and ARDS model; cited from earlier work

Molecule: CN[C@@H](C)C(=O)N[C@H](C(=O)N1CCC[C@H]1C(=O)N[C@H](C(=O)NCCCCCCNC(=O)[C@@H](NC(=O)[C@@H]1CCCN1C(=O)[C@@H](NC(=O)[C@H](C)NC)C1CCCCC1)C(c1ccccc1)c1ccccc1)C(c1ccccc1)c1ccccc1)C1CCCCC1 [BV6] (I: H-[NMeA][Chg]P[Dip] / II: H-[NMeA][Chg]P[Dip]; linker I:C-II:C via Hexamethylenediamine)
- toxicity in combination with TRAIL, IFN-gamma alone or IFN-gamma and TRAIL [1]: enhanced toxicity
- sensitisation of cells by IAP antagonist alone ([1]; BV6 alone, FIG. 9): did not sensitise these cells

Molecule: C[C@]12C=CC(=O)C=C1CC[C@H]1[C@@H]3C[C@@H](O)[C@](O)(C(=O)CO)[C@@]3(C)C[C@H](O)[C@@]12F [Triamcinolone]
- ongoing skin inflammation / skin lesions, therapeutic treatment (Tnfr1KOHoil-1E-KO mice): insufficient to achieve a meaningful therapeutic effect

Molecule: IFN-gamma: type II IFN
- FN14 expression (western blot) (MRC5 cells): upregulation of FN14
- MLKL expression (western blot) (MRC5 cells): strongly upregulated
- sensitisation to death induction by TRAIL or FasL (NIH3T3 cells; IFN pretreatment 24 hr, 1 μg/ml Death Ligand): significantly sensitised them to death induction by TRAIL or FasL
- cell death induced by IFN alone (NIH3T3 cells; without death ligand): sufficient to significantly induce cell death
- effect of IFN pre-treatment on sensitivity to TRAIL-induced cell death ([2]; IFN overnight, then TRAIL 100 ng/ml): did not increase their sensitivity to cell death induction by TRAIL
- effect of IFN pre-treatment on kinetics of TRAIL-induced cell death ([2]; compared to TRAIL alone): accelerated TRAIL-induced cell death
- effect of IFN pre-treatment on sensitivity to death ligand-induced cell death ([3]; IFN overnight): sensitised these cells to FasL-mediated death
- effect of IFN pre-treatment on sensitivity to TRAIL-induced cell death ([1]; IFN overnight, then TRAIL 1 μg/ml): did not increase their sensitivity to cell death induction by TRAIL

Molecule: CN1C(=O)NC(Cc2c[nH]c3c(Cl)cccc23)C1=O (stereo not shown) [Nec-1s, reference compound]
- inhibition of cell death induced by TRAIL in combination with IFN-gamma [2]: delayed the death of HPDECs induced by TRAIL in combination with IFN-gamma, it could not prevent it
- inhibition of TRAIL-induced cell death [1]: could not be blocked

Molecule: CC[C@H](C)[C@H](NC(=O)OCc1ccccc1)C(=O)N[C@@H](CCC(=O)OC)C(=O)N[C@H](C(=O)N[C@@H](CC(=O)OC)C(=O)CF)[C@@H](C)O [zIETD-fmk] (Cbz-IE(OMe)TD(OMe)-CH2F)
- aberrant cell death, inflammation and fibrosis in lung tissue (reovirus 1/L (R1/L)): reduces aberrant cell death, inflammation and fibrosis in lung tissue

Molecule: COC(=O)C[C@H](NC(=O)[C@H](C)NC(=O)[C@@H](NC(=O)OCc1ccccc1)C(C)C)C(=O)CF [zVAD-fmk, reference compound] (Cbz-Val-Ala-Asp(OMe)-CH2F)
- inhibition of cell death induced by TRAIL in combination with IFN-gamma ([2]; HPDECs): delayed the death of HPDECs induced by TRAIL in combination with IFN-gamma, it could not prevent it
- dependence of observed cell death on caspase inhibition ([3]; all death ligands): required inhibition of caspases by zVAD
- inhibition of cell death induced by the different combinations (BV6, TRAIL, IFN-gamma) ([1]; FIG. 9): completely inhibited
- inhibition of TRAIL-induced cell death [1]: completely blocked

B1: TRAIL: Death Ligand, also known as Apo2L (protein, UniProt P50591 1-281, looked up)
Tumor necrosis factor ligand …: MAMMEVQGGPSLGQTCVLIVIFTVLLQSLCVAVTYVYFTNELKQMQDKYSKSGIACFLKEDDSYWDPNDEESMNSPCWQVKWQLRQLVRKMILRTSEETISTVQEKQQNISPLVRERGPQRVAAHITGTRGRSNTLSSPNSKNEKALGRKINSWESSRSGHSFLSNLHLRNGELVIHEKGFYYIYSQTYFRFQEEIKENTKNDKQMVQYIYKYTSYPDPILLMKSARNSCWSKDAEYGLYSIYQGGIFELKENDRIFVSVTNEHLIDMDHEASFFGAFLVG
- sensitivity of cells to death ligand-induced cell death ([2]; 100 ng/ml Death Ligand): exquisitely sensitive to TRAIL-induced apoptosis
- sensitivity of cells to death ligand-induced cell death [3]: highly sensitive to cell death induction
- sensitivity of cells to death ligand-induced cell death ([1]; 1 μg/ml Death Ligand): exquisitely sensitive to TRAIL-induced apoptosis

B2: FasL: Death Ligand, Fas ligand (protein, UniProt P48023 130-281, looked up)
Tumor necrosis factor ligand …: QIGHPSPPPEKKELRKVAHLTGKSNSRSMPLEWEDTYGIVLLSGVKYKKGGLVINETGLYFVYSKVYFRGQSCNNLPLSHKVYMRNSKYPQDLVMMEGKMMSYCTTGQMWARSSYLGAVFNLTSADHLYVNVSELSLVNFEESQTFFGLYKL
- sensitivity of cells to death ligand-induced cell death [3]: relatively insensitive
